Source: ChEMBL document CHEMBL4765309, “New deferiprone derivatives as multi-functional cholinesterase inhibitors: design, synthesis and in vitro evaluation” (Eur J Med Chem, 2020)
pKi: −log10 of the molar value. Activity calls are given as the source filed them. No cut-off for these calls is given here.

Legend:
[1] = Cytotoxicity against human U-87 MG cells assessed as cell viability at 10 uM incubated for 24 hrs by MTT assay; format: cell-based, U-87MG ATCC; details: read-out: Activity
[2] = Metal chelating activity assessed as compound-Fe3+ complex formation by measuring mole fraction that causes maximum variation in absorbance in presence of FeCl3.6H2O by Job's plot analysis
[3] = target: Cholinesterase (Equus caballus) (UniProt P81908); experiment: Mixed type inhibition of equine BChE using varying level of acetylthiocholine as substrate by Dixon plot analysis
Cholinesterase = Cholinesterase (Equus caballus, UniProt P81908); experiment: Inhibition of equine BChE assessed as inhibition constant using acetylthiocholine as substrate measured for 0.5 to 1.5 mins by Ellman's method
[4] = Metal chelating activity assessed as compound-Cu2+ complex formation at 2 mM in presence of CuSO4.5H2O by UV-vis spectrophotometric titration analysis
[5] = Metal chelating activity assessed as compound-Fe3+ complex formation at 2 mM in presence of FeCl3.6H2O by UV-vis spectrophotometric titration analysis
[6] = Metal chelating activity assessed as compound-Zn2+ complex formation at 2 mM in presence of Zn(NO3)2.6H2O by UV-vis spectrophotometric titration analysis
[7] = Metal chelating activity assessed as compound-Fe3+ complex formation at 1.7 mM in presence of FeCl3.6H2O by UV-vis spectrophotometric titration analysis
Acetylcholinesterase = Acetylcholinesterase (Electrophorus electricus, UniProt O42275); experiment: Inhibition of electric eel AChE assessed as inhibition constant using acetylthiocholine as substrate measured for 0.5 to 1.5 mins by Ellman's method
[8] = Metal chelating activity assessed as compound-Cu2+ complex formation by measuring mole fraction that causes maximum variation in absorbance in presence of CuSO4.5H2O by Job's plot analysis

Chain of Cholinesterase (Equus caballus) (P81908 whole entry): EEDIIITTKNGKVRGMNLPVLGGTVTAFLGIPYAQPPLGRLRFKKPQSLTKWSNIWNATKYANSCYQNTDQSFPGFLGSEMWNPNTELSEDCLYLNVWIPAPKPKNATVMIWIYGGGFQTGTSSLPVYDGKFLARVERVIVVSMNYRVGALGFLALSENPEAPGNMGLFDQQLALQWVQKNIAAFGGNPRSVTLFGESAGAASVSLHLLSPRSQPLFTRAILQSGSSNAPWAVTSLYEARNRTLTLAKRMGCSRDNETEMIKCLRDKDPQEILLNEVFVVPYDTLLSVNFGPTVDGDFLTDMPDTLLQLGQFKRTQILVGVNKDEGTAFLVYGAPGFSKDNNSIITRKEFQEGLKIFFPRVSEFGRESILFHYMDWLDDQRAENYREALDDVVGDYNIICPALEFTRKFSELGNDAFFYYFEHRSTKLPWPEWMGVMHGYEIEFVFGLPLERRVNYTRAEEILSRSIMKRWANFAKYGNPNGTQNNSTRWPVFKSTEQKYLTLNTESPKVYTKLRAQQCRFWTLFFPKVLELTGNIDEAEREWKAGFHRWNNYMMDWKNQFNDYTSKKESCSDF
Chain of Cholinesterase (P81908 whole entry): as above
Chain of Acetylcholinesterase (O42275 whole entry): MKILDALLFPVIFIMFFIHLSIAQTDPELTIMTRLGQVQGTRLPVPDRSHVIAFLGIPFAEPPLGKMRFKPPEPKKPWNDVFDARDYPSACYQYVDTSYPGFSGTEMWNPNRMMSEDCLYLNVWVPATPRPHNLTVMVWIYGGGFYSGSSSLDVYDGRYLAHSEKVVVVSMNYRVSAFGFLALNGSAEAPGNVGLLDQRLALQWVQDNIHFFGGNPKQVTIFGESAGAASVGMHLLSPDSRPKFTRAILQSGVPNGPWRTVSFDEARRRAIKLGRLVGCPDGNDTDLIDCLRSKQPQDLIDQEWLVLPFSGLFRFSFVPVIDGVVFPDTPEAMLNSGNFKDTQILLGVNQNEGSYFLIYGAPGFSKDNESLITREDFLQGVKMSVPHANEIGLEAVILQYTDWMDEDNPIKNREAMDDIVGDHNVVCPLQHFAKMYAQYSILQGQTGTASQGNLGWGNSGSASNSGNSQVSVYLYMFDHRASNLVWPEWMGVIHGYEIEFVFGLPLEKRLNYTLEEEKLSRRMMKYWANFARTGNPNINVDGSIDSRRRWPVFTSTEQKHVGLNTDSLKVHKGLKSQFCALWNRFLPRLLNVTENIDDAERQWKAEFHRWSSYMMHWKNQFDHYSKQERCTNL

Compound	viability at 24 h, 10 µM [1]	Activity (mole fraction) [2]	inhibition [3]	pKi (Cholinesterase)	Activity [4]	Activity [5]	Activity [6]	Activity [7]	pKi (Acetylcholinesterase)	Activity (mole fraction) [8]
Cc1c(OCc2ccccc2)c(=O)ccn1CCCCCCNc1ccnc(NCc2ccccc2)n1	> 75%	0.67	Active	6.59	Active	Active	–	–	–	–
Cc1c(OCc2ccccc2)c(=O)ccn1CCCCCCNCc1ccccc1	> 75%	0.52	Active	5.63	–	–	inactive	Active	6.10	–
Cc1c(O)c(=O)ccn1CCCCCCNCc1ccccc1	> 75%	0.53	–	–	Active	Active	inactive	–	5.86	0.37
Cc1c(O)c(=O)ccn1CCCCCCNc1ccnc(NCc2ccccc2)n1	> 75%	0.5	Active	6.04	–	–	Active	–	–	0.64
Cc1c(OCc2ccccc2)c(=O)ccn1CCCCCCNc1nccc(Cl)n1	> 75%	–	Active	5.97	–	Active	–	–	–	–
COc1ccccc1CNCCCCCCn1ccc(=O)c(OCc2ccccc2)c1C	> 75%	–	Active	6.04	–	–	–	–	5.55	–
Cc1c(OCc2ccccc2)c(=O)ccn1CCCCNCc1ccccc1	> 75%	–	Active	6.35	–	–	–	–	–	–
Cc1c(OCc2ccccc2)c(=O)ccn1CCCCCCNc1ccccn1	> 75%	0.7	Active	6.74	–	Active	–	–	–	–
COc1ccccc1CNCCCCCCn1ccc(=O)c(O)c1C	> 75%	–	–	–	–	–	–	–	5.87	–
